Measurements as given in paper PMC10385868 (Viruses, 2023).
In brackets after ≈: the same amount, converted by molar mass. Where two headings read alike, the source gives them in different places.

Key:
VEEV-Trd = assay: microbe, parasite or virus in culture; format: cell-based, Venezuelan equine encephalitis virus
in vitro [1] = conditions: African green monkey
VEEV nsP2 protease [2] = target: T1, VEEV nsP2 protease (Venezuelan equine encephalitis virus, UniProt P27282); assay: biochemical; format: biochemical
T1 sequence (P27282 1003-1322 limits assumed): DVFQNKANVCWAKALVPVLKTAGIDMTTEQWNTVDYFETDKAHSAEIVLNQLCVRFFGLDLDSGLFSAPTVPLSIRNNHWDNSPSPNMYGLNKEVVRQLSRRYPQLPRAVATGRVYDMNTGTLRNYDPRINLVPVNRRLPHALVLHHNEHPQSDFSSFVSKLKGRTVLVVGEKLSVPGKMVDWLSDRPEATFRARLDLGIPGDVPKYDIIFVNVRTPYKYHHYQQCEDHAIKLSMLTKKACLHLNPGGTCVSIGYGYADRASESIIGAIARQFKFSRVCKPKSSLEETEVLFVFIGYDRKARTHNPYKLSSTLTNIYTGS

VEEV Trinidad = format: cell-based, Venezuelan equine encephalitis virus
VEEV-infected HeLa cells = assay: microbe, parasite or virus in culture; format: cell-based, Venezuelan equine encephalitis virus
[3] = rat, microsomes
VEEV-Trinidad = assay: microbe, parasite or virus in culture; format: cell-based; conditions: Venezuelan equine encephalitis virus
VEEV-TC83 = assay: microbe, parasite or virus in culture; format: cell-based; conditions: Venezuelan equine encephalitis virus, HeLa, read-out: VEEV-TC83 EC50
in vitro [4] = conditions: SD, rat, microsomes
in vitro [5] = conditions: PAMPA
in vitro [6] = assay: in vitro
WEEV = assay: microbe, parasite or virus in culture; format: cell-based; conditions: Western equine encephalitis virus, HeLa, read-out: WEEV EC50
VEEV nsP2 protease [7] = target: T1, VEEV nsP2 protease; assay: biochemical; conditions: for kinact/KI: read-out: VEEV nsP2 PROTEASE k2/Ki
in vitro [8] = conditions: human
EEEV = assay: microbe, parasite or virus in culture; format: cell-based; conditions: Eastern equine encephalitis virus, A549, read-out: EEEV EC50
CHIKV = assay: microbe, parasite or virus in culture; format: cell-based; conditions: Chikungunya virus, U2OS, read-out: CHIKV EC50
[9] = Venezuelan equine encephalitis virus
[10] = A549, read-out: VEEV-Trinidad EC50

SMILES: O=C(/C=C/c1cccs1)Nc1scc(-c2ccccc2)c1C(=O)O [MLS000773385-01]
- EC50 (VEEV-Trd; [9]): > 50 µM
- CC50 (in vitro [1]): > 50 µM
- IC50 (VEEV nsP2 protease [2]): 15 ± 2 µM

SMILES: Cc1cc(C(=O)CCl)c(C)n1-c1cccc([N+](=O)[O-])c1 [MLS000877947-01]
- CC50 (cell viability): > 50 µM
- EC50 (VEEV-Trd; read-out: EC50): > 50 µM
- IC50 (VEEV nsP2 protease [2]; read-out: IC50): > 200 µM

SMILES: O=C(CSc1ccccn1)Nc1nonc1[N+](=O)[O-] [MLS001030320-01]
- CC50 (cell viability): > 50 µM
- EC50 (VEEV-Trd; read-out: EC50): > 50 µM
- IC50 (VEEV nsP2 protease [2]; read-out: IC50): > 100 µM

SMILES: O=C(Nc1ccccc1)NN(C(=O)CCl)c1ccccc1 [MLS001177992-01]
- CC50 (cell viability): > 50 µM
- EC50 (VEEV-Trd; read-out: EC50): > 50 µM

SMILES: COc1ccc(C2CC(c3cccs3)=NN2C(=O)CCl)cc1OC (stereo not drawn) [MLS001178292-01]
- CC50 (cell viability): > 50 µM
- cytotoxicity (cell viability): cytotoxic
- antiviral activity against VEEV-Trd in cell-based assays (VEEV-Trd; at 50 µM): did not demonstrate significant antiviral activity
- IC50 (VEEV nsP2 protease [2]; read-out: IC50): > 200 µM

SMILES: Cc1ccc(C2=NN(C(=O)CCl)C(c3ccco3)C2)o1 (stereo not drawn) [MLS001179882-01]
- CC50 (cell viability): > 50 µM
- EC50 (VEEV-Trd; read-out: EC50): > 50 µM
- IC50 (VEEV nsP2 protease [2]; read-out: IC50): > 200 µM

SMILES: O=c1[nH]c(=O)n(-c2ccccc2F)c(O)c1/C=C1\C=Nc2ccccc21 [MLS001197204-01]
- CC50 (cell viability): > 50 µM
- EC50 (VEEV-Trd; read-out: EC50): > 50 µM
- IC50 (VEEV nsP2 protease [2]; read-out: IC50): 30 ± 20 µM

SMILES: COc1cc2c(cc1OC)C(c1cc(Br)ccc1F)N(C(=O)CCl)CC2 (stereo not drawn) [MLS001198393-01]
- CC50 (cell viability): > 50 µM
- EC50 (VEEV-Trd; read-out: EC50): > 16.7 µM
- IC50 (VEEV nsP2 protease [2]; read-out: IC50): > 200 µM

SMILES: CCc1nc(N2CCN(C(=O)CCl)CC2)c2c3c(sc2n1)CC(C)CC3 (stereo not drawn) [MLS001212815-01]
- CC50 (cell viability): > 50 µM
- EC50 (VEEV-Trd; read-out: EC50): > 50 µM
- IC50 (VEEV nsP2 protease [2]; read-out: IC50): > 200 µM

SMILES: CCc1ccc2c(c1)C(NC(C)=O)C(=O)N2CCN1CCOCC1 (stereo not drawn) [MLS001215951-01]
- EC50 (VEEV-Trd; [9]): > 50 µM
- CC50 (in vitro [1]): > 50 µM
- IC50 (VEEV nsP2 protease [2]): 18 ± 7 µM

SMILES: CC(=O)NC1C(=O)N(CCN2CCOCC2)c2ccc(F)cc21 (stereo not drawn) [MLS001215963-01]
- IC50 (VEEV nsP2 protease [2]): 16 ± 3 µM

SMILES: CC(=O)NC1C(=O)N(CCN2CCOCC2)c2ccc(Br)cc21 (stereo not drawn) [MLS001215987-01]
- EC50 (VEEV-Trd; [9]): > 50 µM
- CC50 (in vitro [1]): > 50 µM
- IC50 (VEEV nsP2 protease [2]): 14 ± 3 µM

SMILES: C#Cc1cc(N2CCN(C(=O)c3ccoc3)CC2)n2nc(-c3cccc(Cl)c3)cc2n1 [MLS003116111-01]
- antiviral activity in plaque assays (VEEV Trinidad): notable antiviral activities

SMILES: CC(C)CCNC(=O)C(CC(C)C)NC(=O)C1OC1C(=O)O (stereo not drawn) [NCGC00018306-02]
- concentration showing inhibition in cell-based assays (VEEV-Trd): < 15 µM

SMILES: CCCNC(=O)[C@H]1O[C@H]1C(=O)N[C@H](C(=O)N1CCC[C@@H]1C(=O)OC)C(C)CC (stereo partly drawn) [NCGC00163431-03]
- concentration at which toxicity / cytotoxicity was seen (cell viability; African green monkey): 100 µM
- concentration showing inhibition in cell-based assays (VEEV-Trd): < 15 µM
- inhibition (VEEV-infected HeLa cells): 83%
- inhibition at 1.562 µM (VEEV-infected HeLa cells; Venezuelan equine encephalitis virus, HeLa): 82.9%

SMILES: O=c1cc(N2CCOCC2)oc2c1ccc1ccccc12 [NCGC00165840-02]
- Rat_SD/Microsomes t1/2 [3]: >30 m
- Permeability (PAMPA_Pion_Lipid) (PAMPA): 294.2 ×10⁻⁶ cm/s

SMILES: N=c1c2c(-c3ccccc3)c(-c3ccccc3)n(Cc3ccccc3)c2ncn1C1CCC(O)CC1 (stereo not drawn) [NCGC00247785-13]
- antiviral activity in plaque assays (VEEV Trinidad): notable antiviral activities

SMILES: CCC(C)C(NC(=O)C1OC1C(=O)NC(CC(C)C)C(=O)NCCC(C)C)C(=O)N1CCCC1C(=O)OCc1ccccc1 (stereo not drawn) [NCGC00484087-01]
- EC50 (VEEV-Trinidad; A549): 8 µM
- EC50 (VEEV-Trinidad; [10]): 7.9 µM
- EC50 (VEEV-TC83): 2.17 µM
- half-life (in vitro [4]): 1.5 min
- Rat_SD/Microsomes t1/2 [3]: 1.5 m
- Papp (in vitro [5]): 1090 ×10⁻⁶ cm/s
- CC50 (in vitro [6]; African green monkey): > 100 µM
- CC50 (in vitro [6]; human): > 50 µM
- EC50 (WEEV): 5.74 µM
- Ki (VEEV nsP2 protease [7]): 5 µM
- kinact/KI (VEEV nsP2 protease [7]): 100 M⁻¹ s⁻¹
- PAMPA: 1089.1 ×10⁻⁶ cm/s
- solubility (physchem): 4.1 µg/mL (≈ 6.67 µM)
- CC50 (in vitro [8]): > 50 µM
- EC50 (EEEV): 13.2 µM

SMILES: CC(C)CCNC(=O)[C@H](CC(C)C)NC(=O)[C@H]1O[C@@H]1C(=O)NCCCO [NCGC00487434-01]
- EC50 (VEEV-Trinidad; A549): 70 to 80 µM
- Rat_SD/Microsomes t1/2 [3]: >30 m
- CC50 (in vitro [6]; African green monkey): > 100 µM
- solubility (physchem): 22 µg/mL (≈ 59.2 µM)

SMILES: CC(C)CCNC(=O)[C@H](CC(C)C)NC(=O)[C@H]1O[C@@H]1C(=O)NCc1ccc(C#N)cc1 [NCGC00488904-01]
- EC50 (VEEV-Trinidad; A549): 4 µM
- EC50 (VEEV-Trinidad; [10]): 4.29 µM
- EC50 (CHIKV): 14.8 µM
- EC50 (VEEV-TC83): 4.09 µM
- CC50 (in vitro [6]; African green monkey): > 100 µM
- CC50 (in vitro [6]; human): > 50 µM
- EC50 (WEEV): 5.15 µM
- kinact/KI (VEEV nsP2 protease [7]): 61 M⁻¹ s⁻¹
- CC50 (in vitro [8]): > 50 µM
- EC50 (EEEV): 16.2 µM

SMILES: CC(C)CCNC(=O)[C@H](CC(C)C)NC(=O)[C@H]1O[C@@H]1C(=O)NCCCCO [NCGC00488906-01]
- EC50 (VEEV-Trinidad; A549): 26 µM
- EC50 (VEEV-Trinidad; [10]): 26.4 µM
- EC50 (CHIKV): 18.5 µM
- EC50 (VEEV-TC83): 26.6 µM
- half-life (in vitro [4]): > 30 min
- Rat_SD/Microsomes t1/2 [3]: >30 m
- CC50 (in vitro [6]; African green monkey): > 100 µM
- CC50 (in vitro [6]; human): > 50 µM
- EC50 (WEEV): 20.4 µM
- kinact/KI (VEEV nsP2 protease [7]): 12 M⁻¹ s⁻¹
- solubility (physchem): 15.9 µg/mL (≈ 41.2 µM)
- CC50 (in vitro [8]): > 50 µM
- EC50 (EEEV): > 100 µM

SMILES: CC(C)CCNC(=O)[C@H](CC(C)C)NC(=O)[C@H]1O[C@@H]1C(=O)NCc1cccnc1 [NCGC00488907-01]
- EC50 (VEEV-Trinidad; A549): 6 µM
- EC50 (VEEV-Trinidad; [10]): 5.97 µM
- EC50 (CHIKV): 25.9 µM
- EC50 (VEEV-TC83): 5.22 µM
- half-life (in vitro [4]): 6.4 min
- Rat_SD/Microsomes t1/2 [3]: 6.4 m
- Papp (in vitro [5]): < 4.3 ×10⁻⁶ cm/s
- CC50 (in vitro [6]; African green monkey): > 100 µM
- CC50 (in vitro [6]; human): > 50 µM
- EC50 (WEEV): 8.76 µM
- kinact/KI (VEEV nsP2 protease [7]): 86 M⁻¹ s⁻¹
- PAMPA: <4.3 ×10⁻⁶ cm/s
- CC50 (in vitro [8]): > 50 µM
- EC50 (EEEV): < 50 µM

SMILES: CC(C)CCNC(=O)[C@H](CC(C)C)NC(=O)[C@H]1O[C@@H]1C(=O)NCc1ccncc1 [NCGC00488908-01]
- EC50 (VEEV-Trinidad; A549): 9.5 µM
- EC50 (VEEV-Trinidad; [10]): 9.45 µM
- EC50 (CHIKV): 50 µM
- EC50 (VEEV-TC83): 9.23 µM
- half-life (in vitro [4]): > 30 min
- Rat_SD/Microsomes t1/2 [3]: >30 m
- Papp (in vitro [5]): 7.6 ×10⁻⁶ cm/s
- CC50 (in vitro [6]; African green monkey): > 100 µM
- CC50 (in vitro [6]; human): > 50 µM
- EC50 (WEEV): 14.6 µM
- kinact/KI (VEEV nsP2 protease [7]): 23 M⁻¹ s⁻¹
- PAMPA: 7.6 ×10⁻⁶ cm/s
- solubility (physchem): > 60 µg/mL
- CC50 (in vitro [8]): > 50 µM
- EC50 (EEEV): ≥ 100 µM

SMILES: CC(C)CCNC(=O)[C@H](CC(C)C)NC(=O)[C@H]1O[C@@H]1C(=O)NCc1cccc(C#N)c1 [NCGC00488909-01]
- EC50 (VEEV-Trinidad; A549): 1.8 µM
- EC50 (VEEV-Trinidad; [10]): 1.76 µM
- EC50 (CHIKV): 9.85 µM
- EC50 (VEEV-TC83): 1.48 µM
- CC50 (in vitro [6]; African green monkey): > 100 µM
- CC50 (in vitro [6]; human): > 50 µM
- EC50 (WEEV): 5.02 µM
- Ki (VEEV nsP2 protease [7]): 3 µM
- kinact/KI (VEEV nsP2 protease [7]): 862 M⁻¹ s⁻¹
- CC50 (in vitro [8]): > 50 µM
- EC50 (EEEV): 43 µM

SMILES: COc1cc(NS(C)(=O)=O)ccc1Nc1c2ccccc2nc2ccccc12 [amsacrine]
- antiviral activity in plaque assays (VEEV Trinidad): notable antiviral activities

SMILES: CC[C@H]1CN2CCc3cc(OC)c(OC)cc3[C@@H]2C[C@@H]1C[C@H]1NCCc2cc(OC)c(OC)cc21 [emetine]
- antiviral activity in plaque assays (VEEV Trinidad): notable antiviral activities

SMILES: O=c1[nH]c2ccccc2n1CCCN1CCN(C(c2ccccc2)c2ccccc2)CC1 [oxatomide]
- antiviral activity in plaque assays (VEEV Trinidad): notable antiviral activities
- reduction of VEEV viral replication in plaque assays (VEEV Trinidad): > 5 log
